From ChEMBL document CHEMBL1135845, “N-(arylacetyl)-biphenylalanines as potent VLA-4 antagonists” (Bioorg Med Chem Lett, 2002)

What was measured:
[1] = Inhibition of VLA-4 binding to radiolabeled vascular cell adhesion molecule-1 (VCAM-1) Ig fusion protein in human Jurkat cells; assay type: cell-based
[2] = molecular target: T1, Integrin alpha-4/beta-7 (Homo sapiens, UniProt P13612+P26010); assay: Inhibition of alpha4-beta7 integrin binding to radiolabeled vascular cell adhesion molecule-1 (VCAM-1) Ig fusion protein in human Jurkat cells; assay type: cell-based
T1 sequence (P13612 whole entry): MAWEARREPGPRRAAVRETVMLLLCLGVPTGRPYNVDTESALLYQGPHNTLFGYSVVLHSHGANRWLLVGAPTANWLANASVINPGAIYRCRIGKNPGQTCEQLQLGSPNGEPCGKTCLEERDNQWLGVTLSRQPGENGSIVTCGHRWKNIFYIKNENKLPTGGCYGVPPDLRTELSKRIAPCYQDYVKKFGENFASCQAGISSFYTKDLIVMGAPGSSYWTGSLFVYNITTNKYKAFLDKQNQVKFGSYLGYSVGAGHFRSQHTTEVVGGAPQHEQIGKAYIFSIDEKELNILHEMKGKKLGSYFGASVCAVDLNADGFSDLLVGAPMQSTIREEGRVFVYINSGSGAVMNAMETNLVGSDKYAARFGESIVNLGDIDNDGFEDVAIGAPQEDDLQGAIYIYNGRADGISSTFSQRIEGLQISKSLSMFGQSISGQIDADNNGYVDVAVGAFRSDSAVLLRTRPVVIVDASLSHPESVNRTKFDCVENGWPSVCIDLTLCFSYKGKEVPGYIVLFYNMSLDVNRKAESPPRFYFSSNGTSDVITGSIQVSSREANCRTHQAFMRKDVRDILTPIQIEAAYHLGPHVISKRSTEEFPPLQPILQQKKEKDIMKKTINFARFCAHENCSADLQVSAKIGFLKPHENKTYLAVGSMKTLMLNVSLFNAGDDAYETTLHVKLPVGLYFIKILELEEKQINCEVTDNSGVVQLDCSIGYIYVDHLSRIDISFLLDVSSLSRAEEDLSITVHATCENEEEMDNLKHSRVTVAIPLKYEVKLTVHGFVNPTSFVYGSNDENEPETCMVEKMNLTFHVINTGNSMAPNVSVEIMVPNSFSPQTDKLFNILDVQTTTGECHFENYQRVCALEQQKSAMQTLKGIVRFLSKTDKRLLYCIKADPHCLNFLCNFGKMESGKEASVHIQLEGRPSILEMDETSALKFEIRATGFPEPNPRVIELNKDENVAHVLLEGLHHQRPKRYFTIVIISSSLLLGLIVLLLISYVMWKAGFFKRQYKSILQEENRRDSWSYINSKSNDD
T1 sequence (P26010 whole entry): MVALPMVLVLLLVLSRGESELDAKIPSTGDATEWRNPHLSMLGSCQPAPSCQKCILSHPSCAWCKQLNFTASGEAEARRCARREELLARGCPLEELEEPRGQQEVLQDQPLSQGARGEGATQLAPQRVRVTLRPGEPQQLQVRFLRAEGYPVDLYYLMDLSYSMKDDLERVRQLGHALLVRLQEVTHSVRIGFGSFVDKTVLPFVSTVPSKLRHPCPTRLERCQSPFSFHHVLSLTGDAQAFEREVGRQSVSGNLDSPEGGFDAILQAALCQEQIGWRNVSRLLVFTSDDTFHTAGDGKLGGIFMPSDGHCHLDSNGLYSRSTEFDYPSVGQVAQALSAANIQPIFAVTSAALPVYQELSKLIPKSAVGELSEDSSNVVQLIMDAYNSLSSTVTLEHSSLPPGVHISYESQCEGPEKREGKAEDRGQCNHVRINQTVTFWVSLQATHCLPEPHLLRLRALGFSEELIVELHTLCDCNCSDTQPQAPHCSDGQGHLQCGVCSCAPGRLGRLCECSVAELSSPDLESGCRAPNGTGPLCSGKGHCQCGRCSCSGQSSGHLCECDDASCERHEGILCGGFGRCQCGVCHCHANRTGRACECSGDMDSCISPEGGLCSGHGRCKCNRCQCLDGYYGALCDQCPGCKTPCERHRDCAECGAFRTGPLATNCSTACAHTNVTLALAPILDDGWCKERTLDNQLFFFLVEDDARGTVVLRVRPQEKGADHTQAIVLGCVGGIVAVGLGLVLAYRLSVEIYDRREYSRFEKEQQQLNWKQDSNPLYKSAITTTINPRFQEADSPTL

[3] = Bioavailability in rat (Sprague-Dawley) (dose 1 mg/kg i.v. and 2 mg/kg p.o.); assay type: ADME, organism-based; conditions: in vivo, po
[4] = Plasma clearance rate in Sprague-Dawley rats; assay type: ADME, organism-based; conditions: rat, read-out: Clp
[5] = Plasma half-life was determined in Sprague-Dawley rats after 0-8 h administration of the compound; assay type: ADME, organism-based; conditions: rat

Row | Structure (SMILES) | IC50 [1] | IC50 [2] | bioavailability [3] | clearance [4] | half-life [5]
1 | COc1ccccc1-c1ccc(C[C@H](NC(=O)C2(c3cncc4ccccc34)CCCC2)C(=O)O)cc1 | 9.8 nM | 120 nM | – | – | –
2 | COc1ccccc1-c1ccc(C[C@H](NC(C)=O)C(=O)O)cc1 | 262 nM | – | – | – | –
3 | COc1ccccc1-c1ccc(C[C@H](NC(=O)C2(c3cccnc3)CCCC2)C(=O)O)cc1 | 0.5 nM | 9.9 nM | 35% | 24 mL/min/kg | 66 min
4 | COc1ccccc1-c1ccc(C[C@H](NC(=O)C2(c3ccc(O)nc3)CCCC2)C(=O)O)cc1 | 1.4 nM | 26 nM | 1% | > 100 mL/min/kg | –
5 | COc1ccccc1-c1ccc(C[C@H](NC(=O)C2(c3cccnc3)CCN(C(C)=O)CC2)C(=O)O)cc1 | 0.7 nM | 30 nM | – | – | –
6 | COc1ccccc1-c1ccc(C[C@H](NC(=O)C2(c3ccccc3)CCCCC2)C(=O)O)cc1 | 6.5 nM | – | – | – | –
7 | COc1ccccc1-c1ccc(C[C@H](NC(=O)Cc2ccncc2)C(=O)O)cc1 | 12.2 nM | – | – | – | –
8 | COc1ccccc1-c1ccc(C[C@H](NC(=O)Cc2cccc(C)c2)C(=O)O)cc1 | 30.9 nM | – | – | – | –
9 | COc1ccccc1-c1ccc(C[C@H](NC(=O)Cc2cccc([N+](=O)[O-])c2)C(=O)O)cc1 | 64.9 nM | – | – | – | –
10 | COc1ccccc1-c1ccc(C[C@H](NC(=O)Cc2ccccc2Cl)C(=O)O)cc1 | 36.8 nM | – | – | – | –
11 | COc1ccccc1-c1ccc(C[C@H](NC(=O)C2(c3ccc[n+]([O-])c3)CCCC2)C(=O)O)cc1 | 3.2 nM | 180 nM | – | – | –
12 | COc1ccccc1-c1ccc(C[C@H](NC(=O)C2(c3cccnc3)CCNCC2)C(=O)O)cc1 | 5.1 nM | 83 nM | – | – | –
13 | COc1ccccc1-c1ccc(C[C@H](NC(=O)Cc2ccccn2)C(=O)O)cc1 | 15.8 nM | – | – | – | –
14 | COc1ccccc1-c1ccc(C[C@H](NC(=O)C2(c3ccccc3)CC2)C(=O)O)cc1 | 90.7 nM | – | – | – | –
15 | COc1ccccc1-c1ccc(C[C@H](NC(=O)C2(c3cnc4ccccc4c3)CCCC2)C(=O)O)cc1 | 3.9 nM | 98 nM | – | – | –
16 | COc1ccccc1-c1ccc(C[C@H](NC(=O)Cc2cccc3ccccc23)C(=O)O)cc1 | 145 nM | – | – | – | –
17 | COc1ccccc1-c1ccc(C[C@H](NC(=O)C2(c3cccnc3)CCN(C)CC2)C(=O)O)cc1 | 1 nM | 51 nM | – | – | –
18 | COc1ccccc1-c1ccc(C[C@H](NC(=O)C2(c3ccc(=O)n(C)c3)CCCC2)C(=O)O)cc1 | 2.1 nM | 18 nM | – | – | –
19 | COc1ccccc1-c1ccc(C[C@H](NC(=O)Cc2ccc(-c3ccccc3)cc2)C(=O)O)cc1 | 607 nM | – | – | – | –
20 | COc1ccccc1-c1ccc(C[C@H](NC(=O)C2(c3ccc(C)nc3)CCCC2)C(=O)O)cc1 | 1.3 nM | 36.3 nM | 12% | > 100 mL/min/kg | 18 min
21 | COc1ccccc1-c1ccc(C[C@H](NC(=O)Cc2c(Cl)cccc2Cl)C(=O)O)cc1 | 8 nM | – | – | – | –
22 | COc1ccccc1-c1ccc(C[C@H](NC(=O)C2(c3cncc(Br)c3)CCCC2)C(=O)O)cc1 | 1.6 nM | 165 nM | – | – | –

Row | Structure (SMILES) | IC50 [1] | IC50 [2] | bioavailability [3] | clearance [4] | half-life [5]
23 | COc1ccccc1-c1ccc(C[C@H](NC(=O)C2(c3cccnc3)CCOCC2)C(=O)O)cc1 | 0.5 nM | 94 nM | < 1% | > 100 mL/min/kg | –
24 | COc1ccccc1-c1ccc(C[C@H](NC(=O)Cc2cccnc2)C(=O)O)cc1 | 12.9 nM | – | – | – | –
25 | COc1ccccc1-c1ccc(C[C@H](NC(=O)Cc2ccc(Cl)cc2)C(=O)O)cc1 | 315 nM | – | – | – | –
26 | COc1ccccc1-c1ccc(C[C@H](NC(=O)Cc2cccc(Cl)c2)C(=O)O)cc1 | 328 nM | – | – | – | –
27 | COc1ccccc1-c1ccc(C[C@H](NC(=O)Cc2ccc3ccccc3c2)C(=O)O)cc1 | 801 nM | – | – | – | –
28 | COc1ccccc1-c1ccc(C[C@H](NC(=O)C(C)(C)c2ccccc2)C(=O)O)cc1 | 14.1 nM | – | 94% | 7.5 mL/min/kg | 120 min
29 | COc1ccccc1-c1ccc(C[C@H](NC(=O)Cn2cnnn2)C(=O)O)cc1 | 14.4 nM | – | – | – | –
30 | COc1ccccc1-c1ccc(C[C@H](NC(=O)C2(c3ccccn3)CCCC2)C(=O)O)cc1 | 3 nM | 215 nM | < 1% | > 100 mL/min/kg | –
31 | COc1ccccc1-c1ccc(C[C@H](NC(=O)C(OC)c2ccccc2)C(=O)O)cc1 (some centres undefined) | 7.1 nM | – | – | – | –
32 | COc1ccccc1-c1ccc(C[C@H](NC(=O)Cn2cnc(Cl)c2Cl)C(=O)O)cc1 | 6.15 nM | – | – | – | –
33 | COc1ccccc1-c1ccc(C[C@H](NC(=O)C2(c3ccnnc3)CCCC2)C(=O)O)cc1 | 0.5 nM | 33 nM | – | – | –
34 | COc1ccccc1-c1ccc(C[C@H](NC(=O)Cc2ccccc2)C(=O)O)cc1 | 264 nM | – | – | – | –
35 | COc1ccccc1-c1ccc(C[C@H](NC(=O)Cc2ccccc2[N+](=O)[O-])C(=O)O)cc1 | 4.8 nM | – | – | – | –
36 | COc1cc(C2(C(=O)N[C@@H](Cc3ccc(-c4ccccc4OC)cc3)C(=O)O)CCCC2)ccn1 | 0.8 nM | 15 nM | – | – | –
37 | COc1ccccc1-c1ccc(C[C@H](NC(=O)C2(c3cccnc3)CC=CC2)C(=O)O)cc1 | 0.9 nM | 16.7 nM | – | – | –
38 | COc1ccccc1-c1ccc(C[C@H](NC(=O)C2(c3cccnc3)CCCCC2)C(=O)O)cc1 | 1.4 nM | 158 nM | 6% | 82 mL/min/kg | 24 min
39 | COc1ccccc1-c1ccc(C[C@H](NC(=O)Cc2ccc([N+](=O)[O-])cc2)C(=O)O)cc1 | 44.9 nM | – | – | – | –
40 | COc1ccccc1-c1ccc(C[C@H](NC(=O)Cc2cccc(F)c2)C(=O)O)cc1 | 246 nM | – | – | – | –
41 | COc1ccccc1-c1ccc(C[C@H](NC(=O)Cc2ccc(Cl)cc2Cl)C(=O)O)cc1 | 16.6 nM | – | – | – | –
42 | COc1ccccc1-c1ccc(C[C@H](NC(=O)C2(c3cccnc3C)CCCC2)C(=O)O)cc1 | 1.5 nM | 44 nM | 11% | > 100 mL/min/kg | 36 min
43 | COc1ccccc1-c1ccc(C[C@H](NC(=O)Cc2ccc(F)cc2)C(=O)O)cc1 | 129 nM | – | – | – | –
44 | COc1ccccc1-c1ccc(C[C@H](NC(=O)C2(c3cccnc3)CCC(C)C2)C(=O)O)cc1 (mixture of isomers) | 0.7 nM | 94 nM | – | – | –
